# In BindingDB's records for doi:10.1016/s0960-894x(99)00197-3 (The R. W. Johnson Pharmaceutical Research Institute, 1999):
# Test: Activation of human platelet aggregation (gel-filtered platelets) induced by alpha thrombin
row,Compound,EC50 [nM]
1,"N=C(N)NCCC[C@H](NC(=O)[C@H](CC1CCCCC1)NC(=O)c1nnc(NC(=O)C=Cc2cccc(Cl)c2)[nH]1)C(=O)N[C@@H](Cc1ccccc1)C(N)=O [5-[(E)-3-(3-Chloro-phenyl)-acryloylamino]-1H-[1,2,4]triazole-3-carboxylic acid {(S)-1-[(S)-1-((S)-1-carbamoyl-2-phenyl-ethylcarbamoyl)-4-guanidino-butylcarbamoyl]-2-cyclohexyl-ethyl}-amide]",2400
2,N=C(N)NCCC[C@H](NC(=O)[C@H](Cc1ccccc1)NC(=O)c1ccc2nc[nH]c2c1)C(=O)N[C@@H](Cc1ccccc1)C(N)=O [1H-Benzoimidazole-5-carboxylic acid {(S)-1-[(S)-1-((S)-1-carbamoyl-2-phenyl-ethylcarbamoyl)-4-guanidino-butylcarbamoyl]-2-phenyl-ethyl}-amide],4900
3,"N=C(N)NCCC[C@H](NC(=O)[C@H](Cc1ccccc1)NC(=O)c1nnc(N)[nH]1)C(=O)N[C@@H](Cc1ccccc1)C(N)=O [5-Amino-1H-[1,2,4]triazole-3-carboxylic acid {(S)-1-[(S)-1-((S)-1-carbamoyl-2-phenyl-ethylcarbamoyl)-4-guanidino-butylcarbamoyl]-2-phenyl-ethyl}-amide]",1000
4,"N=C(N)NCCC[C@H](NC(=O)[C@H](CC1CCCCC1)NC(=O)c1nnc(NC(=O)C=Cc2ccccc2)[nH]1)C(=O)N[C@@H](Cc1ccccc1)C(N)=O [5-[(E)-(3-Phenyl-acryloyl)amino]-1H-[1,2,4]triazole-3-carboxylic acid {(S)-1-[(S)-1-((S)-1-carbamoyl-2-phenyl-ethylcarbamoyl)-4-guanidino-butylcarbamoyl]-2-cyclohexyl-ethyl}-amide]",21000
5,N=C(N)NCCC[C@H](NC(=O)[C@H](CC1CCCCC1)NC(=O)c1cc(=O)c2ccccc2o1)C(=O)N[C@@H](Cc1ccccc1)C(N)=O [4-Oxo-4H-chromene-2-carboxylic acid {(S)-1-[(S)-1-((S)-1-carbamoyl-2-phenyl-ethylcarbamoyl)-4-guanidino-butylcarbamoyl]-2-cyclohexyl-ethyl}-amide],510
6,"N=C(N)NCCC[C@H](NC(=O)[C@H](CC1CCCCC1)NC(=O)c1nnc(NC(=O)C=Cc2cccc3ccccc23)[nH]1)C(=O)N[C@@H](Cc1ccccc1)C(N)=O [5-((E)-3-Naphthalen-1-yl-acryloylamino)-1H-[1,2,4]triazole-3-carboxylic acid {(S)-1-[(S)-1-((S)-1-carbamoyl-2-phenyl-ethylcarbamoyl)-4-guanidino-butylcarbamoyl]-2-cyclohexyl-ethyl}-amide]",1000
